Results from publication PMC8810776, “Gut microbiome of the largest living rodent harbors unprecedented enzymatic systems to degrade plant polysaccharides” (Nature Communications, 2022).
Values belong to the compound of their own block, whether it stands above or below them.

Key:
Assay in all cases: substrate saturation curve, initial velocities
CapGH97 = system: T1, CapGH97; assay type: biochemical, Bacteroidaceae bacterium MAG57; details: pH 7.0, 35 °C, 70 mM McIlvaine buffer, 5 mM CaCl2
T1 construct: recombinant in E. coli BL21, pET28a, N-terminal 6xHis-tag cleaved with trypsin; gene of cluster CC102
Excerpt: substrate saturation curve, initial velocities on CapGH97

[1] = system: O=[N+]([O-])c1ccc(O[C@@H]2O[C@H](CO)[C@H](O)[C@H](O)[C@H]2O)cc1; assay type: biochemical, Bacteroides xylanisolvens; details: pH 7.5, 45 °C
Excerpt: substrate saturation curve, initial velocities on BXY_26070 (CBK67650)

CapGH43_12 = system: T2, CapGH43_12; assay type: biochemical, Bacteroidaceae bacterium MAG57; details: pH 6.5, 35 °C, 70 mM McIlvaine buffer
T2 construct: recombinant in E. coli BL21, pET28a, N-terminal 6xHis-tag cleaved with trypsin; gene of cluster CC102
Excerpt: substrate saturation curve, initial velocities on CapGH43_12

CapGH173 = system: T3, CapGH173; assay type: biochemical, Bacteroidales bacterium MAG42; details: pH 7.5, 45 °C, 70 mM McIlvaine buffer
T3 construct: recombinant in E. coli BL21, pET28a, N-terminal 6xHis-tag cleaved with trypsin
Excerpt: substrate saturation curve, initial velocities on CapGH173

Km (CapGH97): 7700 ± 610 µM
Compound: O=[N+]([O-])c1ccc(O[C@H]2O[C@H](CO)[C@H](O)[C@H](O)[C@H]2O)cc1 [pNP-α-D-Gal, p-nitrophenyl-α-D-galactopyranoside]

Compound: BXY_26070 (CBK67650) (Bacteroides xylanisolvens XB1A)
Km [1]: 1190 ± 350 µM
kcat [1]: 29.9 ± 1.95 s⁻¹
kcat/Km [1]: 25100 M⁻¹ s⁻¹

Km (CapGH43_12): 2740 ± 290 µM
Compound: O=[N+]([O-])c1ccc(O[C@@H]2O[C@@H](CO)[C@H](O)[C@H]2O)cc1 [pNP-α-L-AraF, p-nitrophenyl-α-L-arabinofuranoside]

Km (CapGH173): 570 ± 50 µM
Compound: O=[N+]([O-])c1ccc(O[C@@H]2O[C@H](CO)[C@H](O)[C@H](O)[C@H]2O)cc1 [pNP-β-D-Gal, p-nitrophenyl-β-D-galactopyranoside]
